Reference: PubChem BioAssay (NCI)
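A five-concentration, 48-hour dose response in 96-well plates underlies each endpoint, interpolated linearly between surrounding concentrations. GI50 = concentration required for 50% inhibition of growth. TGI marks complete inhibition of growth.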

Assays:
Assay in all cases: growth of human tumour cells (NCI), 48 h
[1] = system: KM12 colon
[2] = system: IGROV1 ovarian
[3] = system: HCT-116 colon
[4] = system: LOX IMVI melanoma
[5] = system: T-47D breast
[6] = system: COLO 205 colon
[7] = system: CCRF-CEM leukemia
[8] = system: BT-549 breast
[9] = system: MOLT-4 leukemia
[10] = system: NCI-H226 lung
[11] = system: A549 NSCLC
[12] = system: SK-MEL-28 melanoma
[13] = system: NCI-H23 lung
[14] = system: MDA-MB-231 breast
[15] = system: SW-620 colon
[16] = system: SF-268 CNS
[17] = system: OVCAR-5 ovarian
[18] = system: ACHN renal
[19] = system: OVCAR-3 ovarian
[20] = system: HS 578T breast
[21] = system: PC-3 prostate
[22] = system: NCI-H522 lung
[23] = system: NCI/ADR-RES ovarian
[24] = system: HOP-92 NSCLC
[25] = system: 786-0 renal
[26] = system: SK-MEL-2 melanoma
[27] = system: UO-31 renal
[28] = system: UACC-257 melanoma
[29] = system: SK-MEL-5 melanoma
[30] = system: MCF7 breast
[31] = system: SNB-19 CNS
[32] = system: SK-OV-3 ovarian
[33] = system: OVCAR-4 ovarian
[34] = system: SF-539 CNS
[35] = system: OVCAR-8 ovarian
[36] = system: DU-145 prostate
[37] = system: MDA-MB-435
[38] = system: K-562 leukemia
[39] = system: M14 melanoma
[40] = system: SNB-75 CNS
[41] = system: U251 CNS
[42] = system: SF-295 CNS
[43] = system: HCT-15 colon
[44] = system: HCC-2998 colon
[45] = system: MALME-3M melanoma
[46] = system: SR leukemia
[47] = system: HT29 colon
[48] = system: RPMI-8226 leukemia
[49] = system: HL-60(TB) leukemia
[50] = system: UACC-62 melanoma
[51] = system: HOP-62 NSCLC
[52] = system: NCI-H460 lung
[53] = system: TK-10 renal
[54] = system: CAKI-1 renal

Cc1cccc2c1O/C(=C\c1ncc([N+](=O)[O-])n1C)C2=O
GI50 [1]: 262 nM
TGI [1]: 877 nM
GI50 [2]: 217 nM
TGI [2]: 2920 nM
GI50 [3]: 55.7 nM
TGI [3]: 422 nM
GI50 [4]: 92 nM
TGI [4]: 387 nM
GI50 [5]: 9230 nM
TGI [5]: 58700 nM
GI50 [6]: 254 nM
TGI [6]: 1420 nM
GI50 [7]: 70.1 nM
TGI [7]: 597 nM
GI50 [8]: 275 nM
TGI [8]: 1190 nM
GI50 [9]: 44.9 nM
TGI [9]: 833 nM
GI50 [10]: 1080 nM
TGI [10]: 4290 nM
GI50 [11]: 382 nM
TGI [11]: 2260 nM
GI50 [12]: 240 nM
TGI [12]: 688 nM
GI50 [13]: 213 nM
TGI [13]: 742 nM
GI50 [14]: 295 nM
TGI [14]: 1510 nM
GI50 [15]: 88.8 nM
TGI [15]: 537 nM
GI50 [16]: 215 nM
TGI [16]: 942 nM
GI50 [17]: 576 nM
TGI [17]: 4450 nM
GI50 [18]: 59.5 nM
TGI [18]: 341 nM
GI50 [19]: 254 nM
TGI [19]: 864 nM
GI50 [20]: 375 nM
TGI [20]: 4700 nM
GI50 [21]: 445 nM
GI50 [22]: 188 nM
TGI [22]: 523 nM
GI50 [23]: 200 nM
TGI [23]: 783 nM
GI50 [24]: 279 nM
TGI [24]: 1640 nM
GI50 [25]: 280 nM
TGI [25]: 969 nM
GI50 [26]: 246 nM
TGI [26]: 584 nM
GI50 [27]: 190 nM
TGI [27]: 708 nM
GI50 [28]: 542 nM
TGI [28]: 5200 nM
GI50 [29]: 152 nM
TGI [29]: 367 nM
GI50 [30]: 243 nM
TGI [30]: 3270 nM
GI50 [31]: 615 nM
TGI [31]: 4600 nM
GI50 [32]: 812 nM
TGI [32]: 3830 nM
GI50 [33]: 635 nM
TGI [33]: 6650 nM
GI50 [34]: 1150 nM
TGI [34]: 3870 nM
GI50 [35]: 166 nM
GI50 [36]: 238 nM
TGI [36]: 762 nM
GI50 [37]: 153 nM
TGI [37]: 350 nM
GI50 [38]: 304 nM
TGI [38]: 3180 nM
GI50 [39]: 169 nM
TGI [39]: 500 nM
GI50 [40]: 781 nM
TGI [40]: 3360 nM
GI50 [41]: 371 nM
TGI [41]: 1640 nM
GI50 [42]: 516 nM
TGI [42]: 2620 nM
GI50 [43]: 87.4 nM
TGI [43]: 318 nM
GI50 [44]: 881 nM
TGI [44]: 3590 nM
GI50 [45]: 185 nM
TGI [45]: 474 nM
TGI [46]: 69.9 nM
GI50 [47]: 104 nM
TGI [47]: 404 nM
GI50 [48]: 589 nM
TGI [48]: 2010 nM
GI50 [49]: 216 nM
TGI [49]: 1130 nM
GI50 [50]: 316 nM
TGI [50]: 1090 nM
GI50 [51]: 599 nM
TGI [51]: 1970 nM
GI50 [52]: 132 nM
TGI [52]: 581 nM
GI50 [53]: 257 nM
TGI [53]: 660 nM
GI50 [54]: 135 nM
TGI [54]: 479 nM
